In patent US20250276993A1, “PSEUDO-DISACCHARIDE COMPOUNDS” (UNIVERSITEIT LEIDEN, priority 2022, published 2025):

Experiments:
HPSE = biological target: T1, HPSE (Homo sapiens, UniProt Q9Y251); test: HSPG digest assay, recombinant HPSE; type: biochemical
T1 sequence (Q9Y251 36-109 limits assumed): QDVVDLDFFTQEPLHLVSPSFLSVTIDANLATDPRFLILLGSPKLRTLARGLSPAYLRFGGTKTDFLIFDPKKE
T1 sequence (Q9Y251 158-543 limits assumed): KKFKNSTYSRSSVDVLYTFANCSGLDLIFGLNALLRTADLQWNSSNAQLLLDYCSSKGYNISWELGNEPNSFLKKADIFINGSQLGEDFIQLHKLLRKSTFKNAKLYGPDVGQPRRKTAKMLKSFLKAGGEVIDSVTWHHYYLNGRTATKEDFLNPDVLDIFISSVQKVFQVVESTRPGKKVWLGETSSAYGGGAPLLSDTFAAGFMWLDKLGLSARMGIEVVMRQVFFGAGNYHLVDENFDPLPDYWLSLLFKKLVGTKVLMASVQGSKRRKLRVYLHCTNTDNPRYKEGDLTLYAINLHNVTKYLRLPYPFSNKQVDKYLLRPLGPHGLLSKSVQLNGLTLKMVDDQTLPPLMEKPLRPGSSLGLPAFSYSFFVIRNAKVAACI
Description: (§1) ECM coated 35 mm culture dishes containing ^35S labelled HS were prepared as previously described (Vlodavsky et al., Curr. Protoc. Cell. Biol., Chapter 10, Unit 10, 14). Briefly, bovine corneal endothelial cells were plated at an initial density of 2×10^5 cells/ml, with 4% dextran T-40 (Sigma) included in the growth medium. Na2^35SO4 (25 μCi/ml) was added to the incubation medium on days 2 and 5 after seeding. On day 12, subendothelial ECM is exposed by dissolving the cells with PBS containing 0.5% Triton X-100 and 20 mM NH4OH, followed by four washes with PBS. For HS-degradation assays, ECM coated dishes were incubated with 200 ng recombinant HPSE in 1 mL reaction mixture (10 mM buffer Phosphate-Citrate pH 6.0, 50 mM NaCl, 1 mM DTT, 1 mM CaCl2) containing HPSE inhibitors or DMSO control. Plates were incubated at 37° C. for 5 h, then assay medium collected and applied to a 0.9×30 cm Sepharose 6B size exclusion column. The Sepharose 6B column was eluted with PBS, and ^35S radioactivity of 0.2 mL fractions quantitated using a liquid scintillation analyzer (Packard BioScience). Digest assays with U87 cell lysates were carried out in a similar fashion, except plates were incubated for 18 h with cell extracts prepared from 1×10^6 U87 glioma cells lysed by 3× freeze/thaw cycles.
The compounds of the invention were assessed against HPSE degradation of bona fide HSPGs in a physiologically relevant ECM-like environment. Cultured bovine corneal […] cells secrete a subendothelial basement membrane material rich in HSPGs, and their growth in the presence of ^35SO4^2− results in ^35S radiolabeled HSPGs (Vlodavsky et al., Curr Protoc Cell Biol, Chapter 10, Unit 10, 4, 2001). H^35S chains attached to these HSPGs are detectable after solubilization by HPSE, with enzyme inhibition leading to a corresponding reduction of signal.

[1] = test system: HPSE in U87 glioma-cell lysates; test: HSPG digest assay, U87 cell lysates; type: cell-based, human; conditions: inhibitor applied before or after cell lysis, comparable H35S solubilization profiles
Description: as §1

[2] = test system: 4T1 mouse mammary carcinoma cells; test: 4T1 breast cancer lung metastasis model; type: in vivo, Balb/c mice; conditions: 2: 300 nmol/mouse i.p.; SST0001: 150 μg/mouse i.p.; bioluminescence, 14 day timepoint
Description: 4T1 breast cancer—Twenty minutes before tumor cell inoculation, Balb/c mice (n=5) were injected intraperitoneally with vehicle alone (PBS), compound 2 (300 nmol/mouse), or SST0001 (150 μg/mouse). Mice were subsequently intravenously inoculated with 1.5×10^5 luciferase tagged 4T1 mouse mammary carcinoma cells/mouse in a volume of 100 μL, alongside 20 μM 2 or 10 μg SST0001.
Bioluminescence imaging of lung metastases produced by luciferase-expressing 4T1 cells was carried out using a highly sensitive, cooled charge-coupled device camera assembled in a specimen box (IVIS; Xenogen Corp, Hopkinton, MA). For this, the tumor-bearing mice were intraperitoneally administered with a luciferase substrate D-luciferin at a dose of 150 mg/kg body weight. The mice were anesthetized and kept in a camera box followed by continuous exposure to isoflurane (EZAnesthesia, Palmer, PA, USA). The tumor burden was quantified using Living Image software (Xenogen) (U. Barash et al., Journal of the National Cancer Institute 110, 1102-1114, 2018; M. Weissmann et al., Proc Natl Acad Sci, 113, 704-709, 2016)
The compounds of the invention were tested against a B16 murine melanoma experimental metastasis model, which measures the formation of metastatic lung tumors by B16 cancer cells after intravenous (i.v.) injection. […]

inhibition of HPSE degradation of 35S-labelled HSPGs (HPSE; 200 ng recombinant HPSE, pH 6.0, 5 h): robust, dose dependent inhibition
concentration giving comparable levels of inhibition (HPSE; HSPG digest, recombinant HPSE): 1 µM
SMILES: CC(=O)NC1C(O)[C@H](O)C(CO)O[C@@H]1O[C@H]1C(O)C(O)[C@@H]2OC2C1C(=O)O (stereo partly drawn) [Compound 2, 4-O-(2-N-acetyl-2-deoxy-D-glucopyranosyl)-glucurono-cyclophellitol]
cell penetration / inhibition of intracellular HPSE pool [1]: can penetrate cells to inhibit the intracellular HPSE pool
incidence of lung metastases (4T1) [2]: marked reduction in the incidence of lung metastases
